Laboratory results reported in paper PMC5909127, “Optimization of a “bump-and-hole” approach to allele-selective BET bromodomain inhibition” (Chemical Science, 2018).

Experiments:
BRDT BD2 WT = BRDT BD2 WT (Homo sapiens, UniProt Q58F21); experiment: competitive AlphaLISA; format: binding; details: read-out: AlphaLISA pIC50 Value BRDT BD2 WT (converted)
in vitro [1] = details: PAMPA, pH 7.4
BRD2 BD1 L/V [2] = target: T1, BRD2 BD1 L/V (Homo sapiens, UniProt P25440, L110V); experiment: ITC; format: binding
T1 sequence (P25440 71-176 L110V limits assumed): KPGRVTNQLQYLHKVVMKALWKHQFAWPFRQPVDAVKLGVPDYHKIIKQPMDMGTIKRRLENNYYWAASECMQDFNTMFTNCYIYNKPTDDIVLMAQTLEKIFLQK

BRD3 BD1 L/V [3] = target: T2, BRD3 BD1 L/V (Homo sapiens, UniProt Q15059, L70V); experiment: competitive AlphaLISA; format: binding; details: read-out: AlphaLISA pIC50 Value BRD3 BD1 L/V (converted)
T2 sequence (Q15059 24-144 L70V limits assumed): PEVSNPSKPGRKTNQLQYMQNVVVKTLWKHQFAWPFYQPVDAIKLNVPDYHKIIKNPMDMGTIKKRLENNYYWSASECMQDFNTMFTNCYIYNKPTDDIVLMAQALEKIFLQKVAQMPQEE

BRD2 BD1 WT [4] = target: T3, BRD2 BD1 WT (Homo sapiens, UniProt P25440); experiment: ITC; format: binding; details: ITC, 30°C; read-out: Kd BRD2 BD1 WT
T3 sequence (P25440 71-176): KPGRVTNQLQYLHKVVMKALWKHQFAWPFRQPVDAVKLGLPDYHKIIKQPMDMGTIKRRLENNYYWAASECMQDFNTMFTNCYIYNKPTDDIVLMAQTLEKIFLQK

BRD3 BD2 WT [5] = target: T4, BRD3 BD2 WT (Homo sapiens, UniProt Q15059); experiment: competitive AlphaLISA; format: binding; details: read-out: AlphaLISA pIC50 Value BRD3 BD2 WT (converted)
T4 sequence (Q15059 306-416): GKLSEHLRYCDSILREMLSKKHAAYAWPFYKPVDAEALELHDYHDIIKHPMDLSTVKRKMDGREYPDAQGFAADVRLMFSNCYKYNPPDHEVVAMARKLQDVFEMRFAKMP

BRD3 BD2 L/V [6] = target: T5, BRD3 BD2 L/V (Homo sapiens, UniProt Q15059, L345V); experiment: ITC; format: binding
T5 sequence (Q15059 306-416 L345V limits assumed): as the sequence (Q15059 306-416) above, with L40V counted along it

BRD4 BD1 L/V [7] = target: T6, BRD4 BD1 L/V (Homo sapiens, UniProt O60885, L94V); experiment: competitive AlphaLISA; format: binding; details: read-out: AlphaLISA pIC50 Value BRD4 BD1 L/V (converted)
BRD4 BD2 WT [8] = target: T7, BRD4 BD2 WT (Homo sapiens, UniProt O60885); experiment: ITC; format: binding; details: ITC, 30°C; read-out: Kd BRD4 BD2 WT
BRD2 BD1 WT [9] = target: T3, BRD2 BD1 WT; experiment: competitive AlphaLISA; format: binding; details: read-out: AlphaLISA pIC50 Value BRD2 BD1 WT (converted)
BRD3 BD1 WT [10] = target: T8, BRD3 BD1 WT (Homo sapiens, UniProt Q15059); experiment: ITC; format: binding; details: ITC, 30°C; read-out: Kd BRD3 BD1 WT
T8 sequence (Q15059 24-144): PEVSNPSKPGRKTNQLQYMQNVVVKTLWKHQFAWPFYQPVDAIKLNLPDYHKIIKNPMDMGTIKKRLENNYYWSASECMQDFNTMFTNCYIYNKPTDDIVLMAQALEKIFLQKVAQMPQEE

BRDT BD2 L/V = BRDT BD2 L/V (Homo sapiens, UniProt Q58F21, L306V); experiment: competitive AlphaLISA; format: binding; details: read-out: AlphaLISA pIC50 Value BRDT BD2 L/V (converted)
BRD3 BD2 WT [11] = target: T4, BRD3 BD2 WT; experiment: ITC; format: binding; details: ITC, 30°C; read-out: Kd BRD3 BD2 WT
[12] = tested on: WT somatic BET bromodomains; experiment: ITC
BRD4 BD1 L/V [13] = target: T6, BRD4 BD1 L/V; experiment: ITC; format: binding
[14] = tested on: L/V BET bromodomains (BD1 and BD2 of BRD2, BRD3 and BRD4); experiment: competitive AlphaLISA (Bio-JQ1 displacement); format: binding, human
[15] = tested on: L/V somatic BET bromodomains; experiment: ITC
BRD2 BD2 L/V [16] = target: T9, BRD2 BD2 L/V (Homo sapiens, UniProt P25440, L383V); experiment: competitive AlphaLISA; format: binding; details: read-out: AlphaLISA pIC50 Value BRD2 BD2 L/V (converted)
T9 sequence (P25440 344-455 L383V): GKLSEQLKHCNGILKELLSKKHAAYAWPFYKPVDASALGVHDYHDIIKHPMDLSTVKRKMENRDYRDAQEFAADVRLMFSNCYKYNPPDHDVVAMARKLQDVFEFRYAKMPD

[17] = target: WT BET bromodomains (BD1 and BD2 of BRD2, BRD3 and BRD4); experiment: competitive AlphaLISA (Bio-JQ1 displacement); format: binding, human; details: mean and SD of all somatic bromodomains; active enantiomer concentration
BRDT BD1 WT = BRDT BD1 WT (Homo sapiens, UniProt Q58F21); experiment: competitive AlphaLISA; format: binding; details: read-out: AlphaLISA pIC50 Value BRDT BD1 WT (converted)
BRD2 BD2 L/V [18] = target: T9, BRD2 BD2 L/V; experiment: ITC; format: binding
BRD2 BD1 L/V [19] = target: T1, BRD2 BD1 L/V; experiment: competitive AlphaLISA; format: binding; details: read-out: AlphaLISA pIC50 Value BRD2 BD1 L/V (converted)
BRD2 BD2 WT [20] = target: T10, BRD2 BD2 WT (Homo sapiens, UniProt P25440); experiment: ITC; format: binding; details: ITC, 30°C; read-out: Kd BRD2 BD2 WT
T10 sequence (P25440 344-455): as the sequence (P25440 344-455 L383V) above, with V40L counted along it

BRD3 BD1 L/V [21] = target: T2, BRD3 BD1 L/V; experiment: ITC; format: binding
in vitro [22] = details: BALB/c, mouse, plasma, pH 7.4
BRD3 BD1 WT [23] = target: T8, BRD3 BD1 WT; experiment: competitive AlphaLISA; format: binding; details: read-out: AlphaLISA pIC50 Value BRD3 BD1 WT (converted)
BRD4 BD2 L/V [24] = target: T11, BRD4 BD2 L/V (Homo sapiens, UniProt O60885, L387V); experiment: competitive AlphaLISA; format: binding; details: read-out: AlphaLISA pIC50 Value BRD4 BD2 L/V (converted)
BRD4 BD2 L/V [25] = target: T11, BRD4 BD2 L/V; experiment: ITC; format: binding
BRD3 BD2 L/V [26] = target: T5, BRD3 BD2 L/V; experiment: competitive AlphaLISA; format: binding; details: read-out: AlphaLISA pIC50 Value BRD3 BD2 L/V (converted)
BRD4 BD1 WT [27] = target: T12, BRD4 BD1 WT (Homo sapiens, UniProt O60885); experiment: ITC; format: binding; details: ITC, 30°C; read-out: Kd BRD4 BD1 WT
BRD4 BD2 WT [28] = target: T7, BRD4 BD2 WT; experiment: competitive AlphaLISA; format: binding; details: read-out: AlphaLISA pIC50 Value BRD4 BD2 WT (converted)
BRD2 BD2 WT [29] = target: T10, BRD2 BD2 WT; experiment: competitive AlphaLISA; format: binding; details: read-out: AlphaLISA pIC50 Value BRD2 BD2 WT (converted)
BRD4 BD1 WT [30] = target: T12, BRD4 BD1 WT; experiment: competitive AlphaLISA; format: binding; details: read-out: AlphaLISA pIC50 Value BRD4 BD1 WT (converted)
[31] = mean and SD of all somatic bromodomains

## CCNC(=O)[C@H](CC)[C@@H]1N=C(c2ccc(Cl)cc2)c2cc(OC)ccc2-n2c(C)nnc21 (relative stereo) [Compound 17]
BRDT BD2 WT
  IC50: 79.4 µM
In vitro [1]
  Papp: 4.5 ×10⁻⁶ cm/s
BRD2 BD1 L/V [2]; ITC
  ΔH BRD2 BD1 L/V: -10.2 kcal/mol
BRD2 BD1 L/V [2]; ITC stoichiometry
  N BRD2 BD1 L/V: 0.97
BRD2 BD1 L/V [2]; ITC, 30°C, read-out: Kd BRD2 BD1 L/V
  Kd: 0.96 µM
BRD3 BD1 L/V [3]
  IC50: 0.501 µM
BRD2 BD1 WT [4]
  Kd: > 60 µM
BRD3 BD2 WT [5]
  IC50: 39.8 µM
BRD3 BD2 L/V [6]; ITC
  ΔH BRD3 BD2 L/V: -4.7 kcal/mol
BRD3 BD2 L/V [6]; ITC stoichiometry
  N BRD3 BD2 L/V: 0.68
BRD3 BD2 L/V [6]; ITC, 30°C, read-out: Kd BRD3 BD2 L/V
  Kd: 0.61 ± 0.09 µM
BRD4 BD1 L/V [7]
  IC50: 2 µM
BRD4 BD2 WT [8]
  Kd: > 60 µM
BRD2 BD1 WT [9]
  IC50: 63.1 µM
BRD3 BD1 WT [10]
  Kd: > 60 µM
BRDT BD2 L/V
  IC50: 5.01 µM
BRD3 BD2 WT [11]
  Kd: > 60 µM
[12]; ITC
  binding to any WT BET bromodomain: no detectable binding
[12]; [31]
  ITC pKd ± SD WT: <4.2
BRD4 BD1 L/V [13]; ITC
  ΔH BRD4 BD1 L/V: -5.9 kcal/mol
BRD4 BD1 L/V [13]; ITC stoichiometry
  N BRD4 BD1 L/V: 0.99
BRD4 BD1 L/V [13]; ITC, 30°C, read-out: Kd BRD4 BD1 L/V
  Kd: 1.6 µM
[14]; L/V minus WT
  AlphaLISA pIC50 ± SD Δ: 1.5 ± 0.2
[14]; mean and SD of all somatic bromodomains, active enantiomer concentration
  AlphaLISA pIC50 ± SD L/V: 5.9 ± 0.3
[15]; L/V minus WT
  ITC pKd ± SD Δ: >1.8 ± 0.2
[15]; [31]
  ITC pKd ± SD L/V: 6.0 ± 0.2
BRD2 BD2 L/V [16]
  IC50: 1.26 µM
[17]
  AlphaLISA pIC50 ± SD WT: 4.4 ± 0.1
BRDT BD1 WT
  IC50: 63.1 µM
BRD2 BD2 L/V [18]; ITC
  ΔH BRD2 BD2 L/V: -5.3 kcal/mol
BRD2 BD2 L/V [18]; ITC stoichiometry
  N BRD2 BD2 L/V: 0.94
BRD2 BD2 L/V [18]; ITC, 30°C, read-out: Kd BRD2 BD2 L/V
  Kd: 1.3 µM
BRD2 BD1 L/V [19]
  IC50: 3.16 µM
BRD2 BD2 WT [20]
  Kd: > 60 µM
BRD3 BD1 L/V [21]; ITC
  ΔH BRD3 BD1 L/V: -9.4 kcal/mol
BRD3 BD1 L/V [21]; ITC stoichiometry
  N BRD3 BD1 L/V: 1.07
BRD3 BD1 L/V [21]; ITC, 30°C, read-out: Kd BRD3 BD1 L/V
  Kd: 0.74 µM
In vitro [22]
  half-life at 50 µM: > 3 h
BRD3 BD1 WT [23]
  IC50: 31.6 µM
BRD4 BD2 L/V [24]
  IC50: 2 µM
BRD4 BD2 L/V [25]; ITC
  ΔH BRD4 BD2 L/V: -3.7 kcal/mol
BRD4 BD2 L/V [25]; ITC stoichiometry
  N BRD4 BD2 L/V: 0.99
BRD4 BD2 L/V [25]; ITC, 30°C, read-out: Kd BRD4 BD2 L/V
  Kd: 1 µM
BRD3 BD2 L/V [26]
  IC50: 0.794 µM
BRD4 BD1 WT [27]
  Kd: > 60 µM
BRD4 BD2 WT [28]
  IC50: 63.1 µM
BRD2 BD2 WT [29]
  IC50: 25.1 µM
BRD4 BD1 WT [30]
  IC50: 50.1 µM
